Data reported in US6136813A, “Pharmaceutical treatment” (Beecham plc, priority 1989, dated 2000).
Read-outs that look alike come from different tables or passages of the source.

Experiment: Blood levels of penciclovir in Pekin ducks after oral dosing with penciclovir or famciclovir
Format: in vivo
Conditions: duck; for AUC at 6 h: 0-6 hr; for concentration at 0.25 h: 15 min; for concentration at 32 min / concentration at 0.5 h: 30 min; for concentration at 32 min: sample collected at 32 min; for concentration at 1 h / concentration at 65 min: 60 min; for concentration at 2 h: 120 min; for concentration at 4 h: 240 min; for concentration at 6 h: 360 min; for concentration at 65 min: sample collected at 65 min
[1] = 5 mg/kg, oral famciclovir 5 mg/kg, Duck No. 117
[2] = 5 mg/kg, oral famciclovir 5 mg/kg, Duck No. 154
[3] = 25 mg/kg, oral famciclovir 25 mg/kg, Duck No. 111
[4] = 25 mg/kg, oral famciclovir 25 mg/kg, Duck No. 153
[5] = 20 mg/kg, oral penciclovir 20 mg/kg, Duck No. 139
[6] = 20 mg/kg, oral penciclovir 20 mg/kg, Duck No. 169
[7] = 100 mg/kg, oral penciclovir 100 mg/kg, Duck No. 142
[8] = 100 mg/kg, oral penciclovir 100 mg/kg, Duck No. 163

`CC(=O)OCC(CCn1cnc2cnc(N)nc21)COC(C)=O` [famciclovir, 9-(4-acetoxy-3-acetoxymethylbut-1-yl)-2-aminopurine] showed an AUC at 6 h (5 mg/kg, oral famciclovir 5 mg/kg, Duck No. 117, read-out: AUC (area under the 0-6 hr. concentration/time curve) of penciclovir in blood) of 15 µM·h, an AUC at 6 h (5 mg/kg, oral famciclovir 5 mg/kg, Duck No. 154, read-out: AUC (area under the 0-6 hr. concentration/time curve) of penciclovir in blood) of 12 µM·h and a concentration at 0.25 h [1] of 8.7 µM. For the same molecule, the concentration at 0.25 h [2] was 5.1 µM, the concentration at 32 min [1] was 8.4 µM and the concentration at 32 min [2] was 3.9 µM. It also gave a concentration at 1 h [1] of 7.5 µM, a concentration at 1 h [2] of 3.5 µM and a concentration at 2 h [1] of 2 µM. The concentration at 2 h [2] was 2 µM, the concentration at 4 h [1] was ~0.5 µM and the concentration at 4 h [2] was 1.4 µM. It also gave a concentration at 6 h [2] of 1 µM, an AUC at 6 h (25 mg/kg, oral famciclovir 25 mg/kg, Duck No. 111, read-out: AUC (area under the 0-6 hr. concentration/time curve) of penciclovir in blood) of 126 µM·h and an AUC at 6 h (25 mg/kg, oral famciclovir 25 mg/kg, Duck No. 153, read-out: AUC (area under the 0-6 hr. concentration/time curve) of penciclovir in blood) of 90 µM·h. It also gave a concentration at 0.25 h [3] of 22 µM, a concentration at 0.25 h [4] of 18 µM and a concentration at 0.5 h [3] of 31 µM. The concentration at 32 min [4] was 20 µM, the concentration at 1 h [3] was 34 µM and the concentration at 1 h [4] was 25 µM. It also gave a concentration at 2 h [3] of 33 µM, a concentration at 2 h [4] of 20 µM and a concentration at 4 h [3] of 14 µM. It also gave a concentration at 4 h [4] of 4.4 µM, a concentration at 6 h [3] of 6.1 µM and a concentration at 6 h [4] of ~0.5 µM.

`Nc1nc2c(ncn2CCC(CO)CO)c(=O)[nH]1` [penciclovir] gave an AUC at 6 h (20 mg/kg, oral penciclovir 20 mg/kg, Duck No. 139, read-out: AUC (area under the 0-6 hr. concentration/time curve) of penciclovir in blood) of 55 µM·h, an AUC at 6 h (20 mg/kg, oral penciclovir 20 mg/kg, Duck No. 169, read-out: AUC (area under the 0-6 hr. concentration/time curve) of penciclovir in blood) of 57 µM·h and a concentration at 0.25 h [5] of 24 µM. It also gave a concentration at 0.25 h [6] of 41 µM, a concentration at 0.5 h [5] of 28 µM and a concentration at 0.5 h [6] of 30 µM. For the same molecule, the concentration at 65 min [5] was 18 µM, the concentration at 65 min [6] was 19 µM and the concentration at 2 h [5] was 12 µM. The concentration at 2 h [6] was 10 µM, the concentration at 4 h [5] was 2.8 µM and the concentration at 4 h [6] was 2.6 µM. The concentration at 6 h [5] was ~0.5 µM, the AUC at 6 h (100 mg/kg, oral penciclovir 100 mg/kg, Duck No. 142, read-out: AUC (area under the 0-6 hr. concentration/time curve) of penciclovir in blood) was 92 µM·h and the AUC at 6 h (100 mg/kg, oral penciclovir 100 mg/kg, Duck No. 163, read-out: AUC (area under the 0-6 hr. concentration/time curve) of penciclovir in blood) was 95 µM·h. The concentration at 0.25 h [7] was 43 µM, the concentration at 0.25 h [8] was 42 µM and the concentration at 0.5 h [7] was 44 µM. For the same molecule, the concentration at 0.5 h [8] was 38 µM, the concentration at 1 h [7] was 40 µM and the concentration at 65 min [8] was 44 µM. It also gave a concentration at 2 h [7] of 18 µM, a concentration at 2 h [8] of 21 µM and a concentration at 4 h [7] of 3.6 µM. It also gave a concentration at 4 h [8] of 2.7 µM, a concentration at 6 h [7] of 1.1 µM and a concentration at 6 h [8] of ~0.5 µM.
